Results taken from US9981933B2, “Detergent compositions” (INNOSPEC LIMITED, priority 2013, dated 2018).

Legend:
[1] = In house foaming test (comparative foam heights); type: physicochemical; conditions: 1 wt % surfactant solution; relative to 1 wt % Sodium Laureth Sulphate (3EO) = 100
Protocol: A 1 wt % surfactant solution was prepared. The foam heights were measured using an in house foaming test and the results were compared with those obtained using a composition comprising 1 wt % Sodium Laureth Sulphate (3EO) [SLES].

[2] = tested on: Zein; experiment: In house qualitative test based on the Zein test (irritancy/mildness); type: in vitro; conditions: 1% surfactant solution; qualitative comparison
Protocol: The mass of residual Zein is determined gravimetrically.

| Relative foam height compared to SLES as % [1] | Compound | irritancy/mildness [2] |
| --- | --- | --- |
| 32% | CCCCCCCCCCCC(=O)OC[C@H](O)[C@H]1OC(=O)C(O)=C1O [Compound 1, Ascorbyl Monolaurate] |  |
| 100% | Sodium Laureth Sulphate (3EO) |  |
| 105% | Ascorbyl Monolaurate Sulphate [Compound 2] | milder than many commercially available personal care surfactants including Sodium Laureth Sulfate (3EO) [SLES] |
